Experimental data published in article PMC8248439, “Activation, Structure, Biosynthesis and Bioactivity of Glidobactin‐like Proteasome Inhibitors from Photorhabdus laumondii” (Chembiochem, 2021).
pIC50: −log10 of the molar value. Like-named read-outs stand apart in the source and are kept apart here.

Assays:
Type in all cases: biochemical
[1] = biological target: T1, yeast 20S proteasome (yCP) β5 subunit (ChTL) (Saccharomyces cerevisiae, UniProt P23724+P30656); test: X-ray crystal structure ([…] Å) and ChTL activity inhibition assay of yCP
T1 construct: gene PRE2; yeast 20S proteasome core particle; with β6 subunit of yCP
T1 sequence (P30656 76-287): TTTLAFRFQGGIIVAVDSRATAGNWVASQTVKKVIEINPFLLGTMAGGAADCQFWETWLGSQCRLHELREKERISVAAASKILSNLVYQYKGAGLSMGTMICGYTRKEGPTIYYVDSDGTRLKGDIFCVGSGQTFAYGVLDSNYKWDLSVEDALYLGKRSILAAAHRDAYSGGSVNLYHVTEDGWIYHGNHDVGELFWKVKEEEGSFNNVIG
T1 sequence (P23724 20-241): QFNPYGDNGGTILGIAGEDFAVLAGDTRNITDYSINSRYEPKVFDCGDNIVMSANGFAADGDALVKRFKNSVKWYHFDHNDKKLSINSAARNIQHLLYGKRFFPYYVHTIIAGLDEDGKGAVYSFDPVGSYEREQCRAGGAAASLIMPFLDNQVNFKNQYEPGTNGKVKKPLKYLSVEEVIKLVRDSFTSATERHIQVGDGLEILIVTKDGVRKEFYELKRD

[2] = biological target: T2, yeast 20S proteasome (yCP) β2 subunit (TL) (Saccharomyces cerevisiae, UniProt P25043); test: X-ray crystal structure ([…] Å), mM soaking; weaker TL inhibition
T2 construct: gene PUP1; yeast 20S proteasome core particle
T2 sequence (P25043 30-261): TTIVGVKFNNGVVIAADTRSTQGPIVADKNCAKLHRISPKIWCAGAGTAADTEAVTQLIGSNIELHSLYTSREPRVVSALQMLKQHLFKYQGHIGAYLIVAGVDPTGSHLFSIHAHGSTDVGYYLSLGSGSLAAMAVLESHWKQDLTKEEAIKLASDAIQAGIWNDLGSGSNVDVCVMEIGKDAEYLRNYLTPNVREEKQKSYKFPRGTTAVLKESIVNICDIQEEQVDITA

[3] = biological target: T1, yeast 20S proteasome (yCP) β5 subunit (ChTL); test: X-ray crystal structure ([…] Å) and ChTL activity inhibition assay of yCP; remark: listed apart in the source
[4] = biological target: T2, yeast 20S proteasome (yCP) β2 subunit (TL); test: X-ray crystal structure ([…] Å), mM soaking; weaker TL inhibition; remark: listed apart in the source

SMILES | pIC50 [1] | pIC50 [2] | pIC50 [3] | pIC50 [4]
CC1C=CC(=O)NCCC(O)CC(NC(=O)C(NC(=O)C=Cc2ccccc2)C(C)O)C(=O)N1 (stereo not shown) [compound 5] | 6.97 | < 6.70 | – | –
CC1C=CC(=O)NCCC(O)CC(NC(=O)C(NC(=O)C=CC=Cc2ccccc2)C(C)O)C(=O)N1 (stereo not shown) [compound 4] | – | – | 7.14 | < 6.70
